Measured values published in ChEMBL document CHEMBL5154769, “Discovery of the First-in-Class Agonist-Based SOS1 PROTACs Effective in Human Cancer Cells Harboring Various KRAS Mutations” (J Med Chem, 2022).
The source made the active and inactive calls. No cut-off for these calls is given here.

Columns and labels:
[1] = biological target: T1, von Hippel-Lindau disease tumor suppressor/Son of sevenless homolog 1 (Homo sapiens, UniProt Q07889+P40337); assay: Protac activity at VHL/SOS1 in human NCI-H358 cells assessed as SOS1 protein degradation at 1 uM incubated for 24 hr by Western blot analysis relative to control; format: cell-based
Target sequence in this assay (P40337 whole entry, looked up): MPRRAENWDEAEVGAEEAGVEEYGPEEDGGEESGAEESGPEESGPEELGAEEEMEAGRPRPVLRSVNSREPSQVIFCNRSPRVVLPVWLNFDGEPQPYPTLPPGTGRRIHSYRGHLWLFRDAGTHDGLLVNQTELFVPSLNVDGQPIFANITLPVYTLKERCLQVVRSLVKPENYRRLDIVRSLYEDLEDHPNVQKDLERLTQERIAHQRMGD
Target sequence in this assay (Q07889 whole entry, looked up): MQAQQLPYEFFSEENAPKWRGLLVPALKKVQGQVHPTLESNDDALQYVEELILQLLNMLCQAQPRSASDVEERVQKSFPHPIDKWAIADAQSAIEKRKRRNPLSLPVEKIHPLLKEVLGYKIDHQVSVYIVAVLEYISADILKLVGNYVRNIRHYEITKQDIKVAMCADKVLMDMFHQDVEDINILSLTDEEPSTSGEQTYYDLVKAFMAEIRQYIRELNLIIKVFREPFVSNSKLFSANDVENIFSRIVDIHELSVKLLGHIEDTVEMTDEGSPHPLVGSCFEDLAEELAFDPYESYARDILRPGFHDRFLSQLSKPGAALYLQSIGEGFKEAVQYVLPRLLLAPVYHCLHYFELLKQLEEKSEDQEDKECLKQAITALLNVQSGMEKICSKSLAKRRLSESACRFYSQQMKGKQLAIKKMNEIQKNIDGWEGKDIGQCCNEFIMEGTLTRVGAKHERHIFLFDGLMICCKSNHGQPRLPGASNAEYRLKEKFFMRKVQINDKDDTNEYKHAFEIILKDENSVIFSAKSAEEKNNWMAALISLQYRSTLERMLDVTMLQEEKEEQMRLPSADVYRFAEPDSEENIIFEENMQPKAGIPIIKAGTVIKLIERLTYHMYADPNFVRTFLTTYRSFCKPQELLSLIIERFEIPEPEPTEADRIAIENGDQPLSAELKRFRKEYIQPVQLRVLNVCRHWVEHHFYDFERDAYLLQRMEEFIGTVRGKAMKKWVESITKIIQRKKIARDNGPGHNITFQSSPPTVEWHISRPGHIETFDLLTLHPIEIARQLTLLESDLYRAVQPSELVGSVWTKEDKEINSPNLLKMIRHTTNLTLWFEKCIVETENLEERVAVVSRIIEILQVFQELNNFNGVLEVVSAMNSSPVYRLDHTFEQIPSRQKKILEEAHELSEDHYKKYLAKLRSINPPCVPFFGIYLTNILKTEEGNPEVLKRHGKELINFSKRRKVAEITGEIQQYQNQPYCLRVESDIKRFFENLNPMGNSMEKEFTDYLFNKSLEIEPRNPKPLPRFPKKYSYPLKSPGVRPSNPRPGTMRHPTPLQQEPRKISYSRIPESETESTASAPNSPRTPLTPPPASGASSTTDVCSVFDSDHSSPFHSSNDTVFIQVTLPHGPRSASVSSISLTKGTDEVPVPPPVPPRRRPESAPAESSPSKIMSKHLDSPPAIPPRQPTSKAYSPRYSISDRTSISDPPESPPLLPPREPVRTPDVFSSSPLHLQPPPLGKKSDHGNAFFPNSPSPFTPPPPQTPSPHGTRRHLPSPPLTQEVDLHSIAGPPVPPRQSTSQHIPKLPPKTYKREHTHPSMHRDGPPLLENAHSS

[2] = biological target: T1, von Hippel-Lindau disease tumor suppressor/Son of sevenless homolog 1; assay: Protac activity at VHL/SOS1 in human NCI-H358 cells assessed as SOS1 protein degradation at 0.1 uM incubated for 24 hr by Western blot analysis relative to control; format: cell-based
Target sequence in this assay (P40337 whole entry, looked up): as the sequence (P40337 whole entry, looked up) above
Target sequence in this assay (Q07889 whole entry, looked up): as the sequence (Q07889 whole entry, looked up) above

[3] = system: NCI-H358; assay: Effect of compound on human NCI-H358 cells assessed as increase in phophorylated ERK level incubated for 24 hr by Western blot analysis; format: functional, cell-based
[4] = biological target: T1, von Hippel-Lindau disease tumor suppressor/Son of sevenless homolog 1; assay: Protac activity at VHL/SOS1 in human NCI-H358 cells assessed as SOS1 protein degradation incubated for 24 hr by Western blot analysis; format: cell-based
Target sequence in this assay (Q07889 whole entry): as the sequence (Q07889 whole entry, looked up) above
Target sequence in this assay (P40337 whole entry): as the sequence (P40337 whole entry, looked up) above

Structure (SMILES) | Activity [1] [%] | Activity [2] [%] | DC50 [4] [nM] | Activity [3]
Cc1cc(Cn2c(N3CC4(CNC4)C3)nc3c(N4CCN(C)CC4)cc(Cl)cc32)cc(C)c1F | – | – | – | Active
Cc1cc(Cn2c(N3CC4(CNC4)C3)nc3c(N4CCN(CCCCCCCCCC(=O)N[C@H](C(=O)N5C[C@H](O)C[C@H]5C(=O)N[C@@H](C)c5ccc(-c6scnc6C)cc5)C(C)(C)C)CC4)cc(Cl)cc32)cc(C)c1F | 82 | 38.5 | 182 | –
Cc1cc(Cn2c(N3CC4(CNC4)C3)nc3c(N4CCN(CCCCCCCC(=O)N[C@H](C(=O)N5C[C@H](O)C[C@H]5C(=O)N[C@@H](C)c5ccc(-c6scnc6C)cc5)C(C)(C)C)CC4)cc(Cl)cc32)cc(C)c1F | 80.9 | 27.6 | 150 | –
Cc1cc(Cn2c(N3CC4(CNC4)C3)nc3c(N4CCN(CCCCCCCCCCCC(=O)N[C@H](C(=O)N5C[C@H](O)C[C@H]5C(=O)N[C@@H](C)c5ccc(-c6scnc6C)cc5)C(C)(C)C)CC4)cc(Cl)cc32)cc(C)c1F | 49 | 33 | – | –
Cc1cc(Cn2c(N3CC4(CNC4)C3)nc3c(N4CCN(CC5CCN(CC(=O)N[C@H](C(=O)N6C[C@H](O)C[C@H]6C(=O)N[C@@H](C)c6ccc(-c7scnc7C)cc6)C(C)(C)C)CC5)CC4)cc(Cl)cc32)cc(C)c1F | 43.3 | 13 | – | –
Cc1cc(Cn2c(N3CC4(CNC4)C3)nc3c(N4CCN(CCCCCCCCC(=O)N[C@H](C(=O)N5C[C@@H](O)C[C@H]5C(=O)N[C@@H](C)c5ccc(-c6scnc6C)cc5)C(C)(C)C)CC4)cc(Cl)cc32)cc(C)c1F | – | – | – | Active
Cc1cc(Cn2c(N3CC4(CNC4)C3)nc3c(N4CCN(CCCCCCCCCCC(=O)N[C@H](C(=O)N5C[C@H](O)C[C@H]5C(=O)N[C@@H](C)c5ccc(-c6scnc6C)cc5)C(C)(C)C)CC4)cc(Cl)cc32)cc(C)c1F | 63.2 | 31.7 | – | –
Cc1cc(Cn2c(N3CC4(CNC4)C3)nc3c(N4CCN(CCOCCOCC(=O)N[C@H](C(=O)N5C[C@H](O)C[C@H]5C(=O)N[C@@H](C)c5ccc(-c6scnc6C)cc5)C(C)(C)C)CC4)cc(Cl)cc32)cc(C)c1F | 24.4 | 23.3 | – | –

Now from value to compound, other results behind:

Activity [1] [%] | Activity [2] [%] | DC50 [4] [nM] | Structure (SMILES) | Activity [3]
12.7 | 8 | – | Cc1cc(Cn2c(N3CC4(CNC4)C3)nc3c(N4CCN(CCCC(=O)NCCCC(=O)N[C@H](C(=O)N5C[C@H](O)C[C@H]5C(=O)N[C@@H](C)c5ccc(-c6scnc6C)cc5)C(C)(C)C)CC4)cc(Cl)cc32)cc(C)c1F | –
11.2 | 7 | – | Cc1cc(Cn2c(N3CC4(CNC4)C3)nc3c(N4CCN(CC5CCN(CCCC(=O)N[C@H](C(=O)N6C[C@H](O)C[C@H]6C(=O)N[C@@H](C)c6ccc(-c7scnc7C)cc6)C(C)(C)C)CC5)CC4)cc(Cl)cc32)cc(C)c1F | –
9.4 | 18.1 | – | Cc1cc(Cn2c(N3CC4(CNC4)C3)nc3c(N4CCN(CC5CCN(CCC(=O)N[C@H](C(=O)N6C[C@H](O)C[C@H]6C(=O)N[C@@H](C)c6ccc(-c7scnc7C)cc6)C(C)(C)C)CC5)CC4)cc(Cl)cc32)cc(C)c1F | –
14 | 4.4 | – | Cc1cc(Cn2c(N3CC4(CNC4)C3)nc3c(N4CCN(CCOCCOCCC(=O)N[C@H](C(=O)N5C[C@H](O)C[C@H]5C(=O)N[C@@H](C)c5ccc(-c6scnc6C)cc5)C(C)(C)C)CC4)cc(Cl)cc32)cc(C)c1F | –
36.6 | 15.4 | – | Cc1cc(Cn2c(N3CC4(CNC4)C3)nc3c(N4CCN(CCOCCOCCOCCC(=O)N[C@H](C(=O)N5C[C@H](O)C[C@H]5C(=O)N[C@@H](C)c5ccc(-c6scnc6C)cc5)C(C)(C)C)CC4)cc(Cl)cc32)cc(C)c1F | –
0 | 3.2 | – | Cc1cc(Cn2c(N3CC4(CNC4)C3)nc3c(N4CCN(CCCCC(=O)NCCCC(=O)N[C@H](C(=O)N5C[C@H](O)C[C@H]5C(=O)N[C@@H](C)c5ccc(-c6scnc6C)cc5)C(C)(C)C)CC4)cc(Cl)cc32)cc(C)c1F | –
18.3 | 0 | – | Cc1cc(Cn2c(N3CC4(CNC4)C3)nc3c(N4CCN(CCC(=O)NCCCC(=O)N[C@H](C(=O)N5C[C@H](O)C[C@H]5C(=O)N[C@@H](C)c5ccc(-c6scnc6C)cc5)C(C)(C)C)CC4)cc(Cl)cc32)cc(C)c1F | –
30.4 | 5.8 | – | Cc1cc(Cn2c(N3CC4(CNC4)C3)nc3c(N4CCN(CCCCCC(=O)N[C@H](C(=O)N5C[C@H](O)C[C@H]5C(=O)N[C@@H](C)c5ccc(-c6scnc6C)cc5)C(C)(C)C)CC4)cc(Cl)cc32)cc(C)c1F | –
79.9 | 30.7 | 216 | Cc1cc(Cn2c(N3CC4(CNC4)C3)nc3c(N4CCN(CCCCCCC(=O)N[C@H](C(=O)N5C[C@H](O)C[C@H]5C(=O)N[C@@H](C)c5ccc(-c6scnc6C)cc5)C(C)(C)C)CC4)cc(Cl)cc32)cc(C)c1F | –
